According to patent US20130071897A1, “METHOD FOR CONTROLLING UNDESIRABLE BYPRODUCTS FORMATION CAUSED BY CONTAMINATING ORGANISMS IN THE PRODUCTION OF ETHANOL FROM SYNGAS” (COSKATA, INC., priority 2011, published 2013):
“And” between values parts separate entries of the source, which are not always exact repeats. Equal entries are not always repeated.

Legend:
[1] = system: C. carboxidivorans; test: Product profiles of C. carboxidivorans cultures by GC-MSD; assay type: cell-based; settings: 500 and 1000 ppm; 54 hour cultures
Protocol: Product profiles were determined on the C. carboxidivorans cultures that grew in the presence of compound A. A GC-MSD was performed on 54 hour cultures and product distributions were calculated based on the resultant areas of the output (See FIG. 2). In cultures with no compound A addition, the distribution of C2, C4 and C6 acids and alcohols was similar in both samples. As the compound A concentration increased the amount of C2, particularly the alcohols, increased. […] Thus, such crotonate derivatives can effectively limit the amount of butyl impurity accumulation in the fermentation zone from heteroacetogens which can compete effectively in syngas cultures with homoacetogenic bacteria.

[2] = system: Clostridium tyrobutyricum; test: Butyric acid by gas chromatography in Clostridium tyrobutyricum batch fermentations; assay type: cell-based; settings: 5 mM, duplicates A and B
Protocol: The concentration of butyric acid is determined by gas chromatography for several of the above samples at the stated points in time. The butyrate production is calculated based upon peak area calculations generated by the gas chromatograph. At 11 hours, the concentration of butyric acid for each of the controls is about 0.95 gram per liter, and the concentration of butyric acid for the samples containing 500 ppm of the inhibitor are about 0.6 gram per liter.
The concentration of butyric acid is determined by gas chromatography using the procedure set forth in Example 13. The control is reported only in Table 18.

With `CCOC(=O)C=C(C(F)(F)F)C(F)(F)F` [Compound A, ethyl 4,4,4-trifluoro-3-(trifluoromethyl)crotonate] the “Product distribution of C2, C4 and C6 acids and alcohols” value [1] was “virtually all the product observed was the C2 alcohol”, the “Butyrate Production” value ([2]; 4.5 Hours) was 0.04 grams per liter and the “Butyrate Production” value ([2]; 6 Hours) was 0.06 grams per liter and 0.05 grams per liter. The “Butyrate Production” value ([2]; 24 Hours) was 0.10 grams per liter and 0.08 grams per liter.
